Reference: ChEMBL document CHEMBL4622855, “Secondary metabolites from Isodon ternifolius (D. Don) Kudo and their anticancer activity as DNA topoisomerase IB and Tyrosyl-DNA phosphodiesterase 1 inhibitors” (Bioorg Med Chem, 2020)
pIC50: −log10 of the molar value. Calls of active or inactive are those of the source. The calls are words filed in the database; no cut-off is given here.

What was measured:
[1] = target: Tyrosyl-DNA phosphodiesterase 1 (Homo sapiens, UniProt Q9NUW8); test: Inhibition of TDP1 (unknown origin) expressed in Escherichia coli BL21 (DE3) using 5'-FAM-AGGATCTAAAAGACTT-BHQ-3' as substrate preincubated for 30 mins followed by substrate addition by fluorescence assay
Chain of Tyrosyl-DNA phosphodiesterase 1 (Q9NUW8 whole entry): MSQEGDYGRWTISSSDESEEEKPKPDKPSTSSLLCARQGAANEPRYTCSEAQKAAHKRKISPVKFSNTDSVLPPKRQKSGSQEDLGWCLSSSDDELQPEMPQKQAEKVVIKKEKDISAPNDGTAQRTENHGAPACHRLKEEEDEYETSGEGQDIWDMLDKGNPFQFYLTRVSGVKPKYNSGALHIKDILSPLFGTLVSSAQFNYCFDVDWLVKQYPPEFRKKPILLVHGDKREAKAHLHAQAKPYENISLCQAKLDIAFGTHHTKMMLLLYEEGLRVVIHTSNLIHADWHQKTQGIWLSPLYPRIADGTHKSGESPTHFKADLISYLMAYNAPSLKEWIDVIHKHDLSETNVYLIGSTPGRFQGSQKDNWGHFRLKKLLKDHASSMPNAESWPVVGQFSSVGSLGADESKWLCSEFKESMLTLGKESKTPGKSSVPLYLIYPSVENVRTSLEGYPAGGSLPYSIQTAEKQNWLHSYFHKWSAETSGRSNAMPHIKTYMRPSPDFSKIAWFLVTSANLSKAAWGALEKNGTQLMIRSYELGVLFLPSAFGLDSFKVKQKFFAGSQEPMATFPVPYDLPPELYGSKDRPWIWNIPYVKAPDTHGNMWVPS

A549 = test: Cytotoxicity against human A549 cells assessed as growth inhibition after 72 hrs by MTT assay; format: functional; conditions: A549, 72 h
HCT-116 = test: Cytotoxicity against human HCT116 cells assessed as growth inhibition after 72 hrs by MTT assay; format: functional; conditions: HCT-116, 72 h
MCF7 [2] = test: Cytotoxicity against human MCF7 cells assessed as reduction in cell viability after 72 hrs by MTT assay; format: functional; conditions: MCF7, 72 h
[3] = target: T1, DNA topoisomerase I (Bos taurus) (UniProt F1MN93); test: Inhibition of calf thymus Top1 assessed as reduction in supercoiled pBR322 DNA relaxation at 100 uM measured after 30 mins by agarose gel electrophoresis relative to camptothecin
T1 sequence (whole entry): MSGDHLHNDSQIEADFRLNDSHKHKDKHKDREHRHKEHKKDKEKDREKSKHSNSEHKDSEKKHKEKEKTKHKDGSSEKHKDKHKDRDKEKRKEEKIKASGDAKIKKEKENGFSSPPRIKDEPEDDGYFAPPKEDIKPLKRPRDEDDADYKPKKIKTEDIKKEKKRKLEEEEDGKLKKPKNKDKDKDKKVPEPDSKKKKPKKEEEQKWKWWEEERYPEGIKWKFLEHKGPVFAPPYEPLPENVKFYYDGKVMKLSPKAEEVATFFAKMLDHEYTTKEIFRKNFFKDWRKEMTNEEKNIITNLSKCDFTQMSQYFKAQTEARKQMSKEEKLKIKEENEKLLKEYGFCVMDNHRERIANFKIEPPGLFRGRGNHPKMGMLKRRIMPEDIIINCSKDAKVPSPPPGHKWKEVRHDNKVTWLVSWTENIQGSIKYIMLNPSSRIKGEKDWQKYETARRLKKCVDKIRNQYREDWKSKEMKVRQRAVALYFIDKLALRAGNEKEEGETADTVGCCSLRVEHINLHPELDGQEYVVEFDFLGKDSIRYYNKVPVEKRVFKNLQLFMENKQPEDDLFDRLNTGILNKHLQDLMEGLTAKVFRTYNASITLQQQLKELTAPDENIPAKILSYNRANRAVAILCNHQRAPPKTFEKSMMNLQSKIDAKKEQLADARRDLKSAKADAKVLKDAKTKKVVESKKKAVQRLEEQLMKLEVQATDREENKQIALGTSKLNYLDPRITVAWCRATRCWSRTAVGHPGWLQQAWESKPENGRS

MCF7 [4] = test: Induction of DNA damage in human MCF7 cells assessed as increase in gammaH2AX foci formation at 0.5 uM measured after 12 hrs by immunofluorescence assay; format: functional, cell-based
[5] = target: T1, DNA topoisomerase I (Bos taurus); test: Inhibition of calf thymus Top1-mediated supercoiled pBR322 DNA cleavage assessed as nicked DNA content at 50 uM measured after 30 mins by ethidium bromide staining agarose gel electrophoresis; parameters: scale not given: the % may be the effect or the level left
[6] = target: T1, DNA topoisomerase I (Bos taurus); test: Inhibition of calf thymus Top1-mediated supercoiled pBR322 DNA cleavage assessed as nicked DNA content at 25 uM measured after 30 mins by ethidium bromide staining agarose gel electrophoresis; parameters: scale not given: the % may be the effect or the level left
MCF7 [7] = test: Synergistic antiproliferative activity against human MCF7 cells assessed as combination index at 12.5 to 50 uM after 72 hrs in presence of TOP1 inhibitor topotecan by MTT assay; format: functional
MCF7 [8] = test: Induction of DNA damage in human MCF7 cells assessed as increase in gammaH2AX foci formation up to 9 uM measured after 12 hrs by immunofluorescence assay; format: functional, cell-based
[9] = target: T1, DNA topoisomerase I (Bos taurus); test: Inhibition of calf thymus Top1 assessed as reduction in Top1-supercoiled pBR322 DNA covalent cleavage formation at 25 to 50 uM measured after 30 mins by electrophoretic mobility shift assay
[10] = target: T1, DNA topoisomerase I (Bos taurus); test: Inhibition of calf thymus Top1 assessed as reduction in supercoiled pBR322 DNA relaxation measured after 30 mins by agarose gel electrophoresis
MCF7 [11] = test: Synergistic antiproliferative activity against human MCF7 cells assessed as combination index at 50 to 100 uM after 72 hrs in presence of TOP1 inhibitor topotecan by MTT assay; format: functional

Structure (SMILES) | pIC50 [1] | GI50 (A549) | GI50 (HCT-116) | GI50 (MCF7 [2]) | inhibition [3] | Activity (MCF7 [4]) | Activity [5] | Activity [6] | CI (MCF7 [7]) | Activity (MCF7 [8]) | inhibition [9] | inhibition [10] | CI (MCF7 [11])
CC(C)c1ccc(O)c2c1CC[C@H]1[C@@](C)(C(=O)O)CCC[C@]21C | < 4.00 | 41 µM | 31 µM | 60 µM | 30 to 59% | – | – | – | – | – | – | – | –
C=C1C(=O)O[C@H]2C3=CC[C@@H]4C(C)(C)[C@H](O)CC[C@@]4(C)[C@@H]3CC[C@@H]12 | < 4.00 | 35 µM | 35 µM | 53 µM | 30 to 59% | – | – | – | – | – | – | – | –
CC1(C)CC[C@]2(C(=O)O)CC[C@]3(C)C(=CC[C@@H]4[C@@]5(C)CC[C@H](O)C(C)(C)[C@@H]5CC[C@]43C)[C@@H]2C1 [OLEANOLIC_ACID] | – | > 100 µM | > 100 µM | > 100 µM | 0% | – | – | – | – | – | – | – | –
CC[C@@]1(O)C(=O)OCc2c1cc1n(c2=O)Cc2cc3ccccc3nc2-1 | – | – | – | – | – | Active | 18% | 16% | – | – | – | – | –
C=C1C(=O)O[C@H]2C3=CC[C@@H]4C(C)(C)C(=O)CC[C@@]4(C)[C@@H]3CC[C@@H]12 | < 4.00 | 51 µM | 31 µM | 15 µM | 60 to 89% | – | – | – | – | – | – | – | –
CC1(C)CC[C@]2(C(=O)O)CC[C@]3(C)C(=CC[C@@H]4[C@@]5(C)C[C@@H](O)[C@@H](O)C(C)(C)[C@@H]5CC[C@]43C)[C@@H]2C1 | < 4.00 | > 100 µM | 51 µM | > 100 µM | 30 to 59% | – | – | – | – | – | – | – | –
CC1(C)CC[C@]2(C(=O)O)CC[C@]3(C)C(=CC[C@@H]4[C@@]5(C)C[C@H](O)[C@H](O)[C@@](C)(COC(C)(C)O)[C@@H]5CC[C@]43C)[C@@H]2C1 | < 4.00 | 37 µM | 55 µM | 11 µM | 60 to 89% | – | – | – | – | – | – | – | –
C[C@@H]1CC[C@@]23CC[C@]4(C)[C@@](C=C[C@@H]5[C@@]6(C)CC[C@H](O)C(C)(C)[C@@H]6CC[C@]54C)(OC2=O)C3[C@H]1C (some centres not stated) | – | > 100 µM | > 100 µM | > 100 µM | 0% | – | – | – | – | – | – | – | –
CC1(C)CC[C@]2(C(=O)O)CC[C@]3(C)C(=CC[C@@H]4[C@@]5(C)C[C@@H](O)[C@@H](O)[C@@](C)(CO)[C@@H]5CC[C@]43C)[C@@H]2C1 | – | > 100 µM | > 100 µM | > 100 µM | 0% | – | – | – | – | – | – | – | –
CO[C@@H]1C[C@]2(C)[C@H]3CC=C4[C@H]5[C@](C(=O)O)(CC[C@@H](C)[C@@]5(C)O)CC[C@@]4(C)[C@]3(C)CC[C@H]2C(C)(C)CO1 | < 4.00 | 63 µM | 37 µM | 31 µM | 30 to 59% | – | – | – | – | – | – | – | –
COc1cc(O)ccc1/C=C/C(=O)c1ccc(O)cc1 [ECHINATIN] | 4.35 | 36 µM | 64 µM | 43 µM | 30 to 59% | – | – | – | <0.3 | – | – | – | –
CC(C)c1cc2c(cc1O)[C@]1(C)CCC[C@](C)(C(=O)O)[C@H]1CC2 | < 4.00 | 36 µM | 68 µM | 60 µM | 30 to 59% | – | – | – | – | – | – | – | –
C=C1C(=O)[C@]23C[C@H]1CC[C@H]2[C@]1(C)CC[C@@H](O)C(C)(C)[C@H]1C[C@@H]3O | < 4.00 | 4.8 µM | 2.7 µM | 3.5 µM | 60 to 89% | – | – | – | – | – | – | – | –
C[C@H]1[C@H](C)CC[C@]2(CO)CC[C@]3(C)C(=CC[C@@H]4[C@@]5(C)CC[C@H](O)C(C)(C)[C@@H]5CC[C@]43C)[C@H]12 [UVAOL] | < 4.00 | 45 µM | 37 µM | 93 µM | 30 to 59% | – | – | – | – | – | – | – | –
CC1(C)CC[C@]2(C(=O)O)CC[C@]3(C)C(=CC[C@@H]4[C@@]5(C)C[C@@H](O)[C@H](O)[C@](C)(CO)[C@@H]5CC[C@]43C)[C@@H]2C1 | – | 22 µM | 29 µM | 14 µM | 60 to 89% | – | – | – | – | – | – | – | –
CC(C)c1ccc2c(c1O)CC[C@@H]1[C@@](C)(CO)CCC[C@@]21C | < 4.00 | > 100 µM | > 100 µM | > 100 µM | 0% | – | – | – | – | – | – | – | –
CC(=O)O[C@H]1CC[C@]2(C)[C@H]3CC=C4[C@H]5[C@](C(=O)O)(CC[C@@H](C)[C@@]5(C)O)CC[C@@]4(C)[C@]3(C)CC[C@H]2C1(C)C | < 4.00 | > 100 µM | > 100 µM | > 100 µM | 0% | – | – | – | – | – | – | – | –
C[C@@H]1CC[C@]2(C(=O)O)CC[C@]3(C)C(=CC[C@@H]4[C@@]5(C)C[C@@H](O)OCC(C)(C)[C@@H]5CC[C@]43C)[C@@H]2[C@]1(C)O | < 4.00 | > 100 µM | 23 µM | > 100 µM | < 29% | – | – | – | – | – | – | – | –
C[C@@H]1CC[C@]2(C(=O)O)CC[C@]3(C)C(=CC[C@@H]4[C@@]5(C)C[C@@H](O)[C@@H](O)C(C)(C)[C@@H]5CC[C@]43C)[C@@H]2[C@]1(C)O [EUSCAPHIC ACID] | < 4.00 | 43 µM | 22 µM | 41 µM | > 90% | – | – | – | – | – | – | – | –
CC(C)c1cc2c(cc1O)[C@@]1(C)CCC[C@](C)(CO)[C@@H]1CC2 | < 4.00 | 91 µM | 51 µM | 92 µM | 30 to 59% | – | – | – | – | – | – | – | –
C=C1C(=O)O[C@H]2C3=CC[C@@H]4[C@](C)(CO)CCC[C@@]4(C)[C@@H]3CC[C@@H]12 | – | 51 µM | 42 µM | 40 µM | 30 to 59% | – | – | – | – | – | – | – | –
C[C@H]1[C@H](C)CC[C@]2(C(=O)O)CC[C@]3(C)C(=CC[C@@H]4[C@@]5(C)CCC(=O)C(C)(C)[C@@H]5CC[C@]43C)[C@H]12 [URSONIC ACID] | – | 57 µM | 5.3 µM | 12 µM | > 90% | – | 9% | 11% | – | inactive | Active | Dose-dependent effect | –
CC(=O)O[C@H]1CC[C@]2(C)[C@H]3CC=C4[C@@H]5[C@@H](C)[C@H](C)CC[C@]5(C(=O)O)CC[C@@]4(C)[C@]3(C)CC[C@H]2C1(C)C [O-ACETYLURSOLIC ACID] | – | 48 µM | 21 µM | 6.5 µM | > 90% | – | – | – | – | – | – | – | –
COc1cc(/C=C/C(=O)O[C@H]2[C@H](O)C[C@]3(C)[C@H]4CC=C5[C@@H]6CC(C)(C)CC[C@]6(C(=O)O)CC[C@@]5(C)[C@]4(C)CC[C@H]3C2(C)C)ccc1O | < 4.00 | 59 µM | 22 µM | 67 µM | > 90% | – | 10% | 9% | – | – | Active | Dose-dependent effect | –
O=C(/C=C/c1ccc(O)cc1)c1ccc(O)cc1O [ISOLIQUIRITIGENIN] | 4.26 | 87 µM | 39 µM | > 100 µM | 30 to 59% | – | – | – | – | – | – | – | <1
C[C@H]1[C@H](C)CC[C@]2(C(=O)O)CC[C@]3(C)C(=CC[C@@H]4[C@@]5(C)C[C@@H](O)[C@H](O)C(C)(C)[C@@H]5CC[C@]43C)[C@H]12 [COROSOLIC ACID] | < 4.00 | > 100 µM | > 100 µM | 62 µM | < 29% | – | – | – | – | – | – | – | –
